The values that follow come from patent US11566007B2, “Ras inhibitors” (Revolution Medicines, Inc., priority 2019, dated 2023).

A word on the IC50: it is the concentration needed to halve the response being measured. What is called EC50 is the concentration needed to bring the measured effect to its halfway point.

The target of one assay is K-Ras G12C (Homo sapiens (Human), UniProt P01116+P62937, G12C). Kind of assay: Ras-Raf (BRAF RBD) disruption / FRET / MOA assay, KRAS G12C. Type of assay: biochemical. To be noted: KRAS G12C; Ras-Raf disruption/FRET/MOA assay; read-out: IC50* KRAS G12C FRET data. In outline: (§1)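 Compounds, top final concentration 30 μM in 10-point 3-fold series, incubated 3 hours at 25° C with nucleotide-loaded Ras, cyclophilin A and BRAF RBD.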
Chain of K-Ras G12C (P01116-2 other isoform, or with tags, fused parts or gaps G12C): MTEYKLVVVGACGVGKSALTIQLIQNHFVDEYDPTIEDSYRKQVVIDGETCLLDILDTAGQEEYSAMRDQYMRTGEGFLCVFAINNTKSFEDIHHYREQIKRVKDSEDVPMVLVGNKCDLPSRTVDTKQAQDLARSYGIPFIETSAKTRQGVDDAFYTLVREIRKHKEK
Chain of K-Ras G12C (P62937 whole entry): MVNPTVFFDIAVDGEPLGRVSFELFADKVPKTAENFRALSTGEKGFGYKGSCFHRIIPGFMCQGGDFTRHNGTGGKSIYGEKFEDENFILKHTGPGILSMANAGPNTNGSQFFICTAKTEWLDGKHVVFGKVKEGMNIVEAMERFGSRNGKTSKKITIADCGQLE

The target of another assay is K-Ras G13C (Homo sapiens (Human), UniProt P01116+P62937, G13C). Kind of assay: Ras-Raf (BRAF RBD) disruption / FRET / MOA assay, KRAS G13C. The class given is biochemical. To be noted: KRAS G13C; Ras-Raf disruption/FRET/MOA assay; read-out: IC50* KRAS G13C FRET data. In outline: as §1
Chain of K-Ras G13C (P01116-2 other isoform, or with tags, fused parts or gaps G13C): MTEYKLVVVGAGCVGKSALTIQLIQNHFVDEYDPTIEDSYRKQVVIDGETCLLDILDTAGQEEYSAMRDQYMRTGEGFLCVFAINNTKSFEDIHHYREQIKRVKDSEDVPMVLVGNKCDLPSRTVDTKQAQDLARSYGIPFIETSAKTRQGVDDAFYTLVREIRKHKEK
Chain of K-Ras G13C (P62937 whole entry): as the sequence (P62937 whole entry) above
In assay [1] the test system is NCI-H358 cells (K-Ras G12C). As to the kind of experiment: Potency assay: pERK in NCI-H358 cells. Conditions: Homo sapiens, NCI-H358; H358 KRAS G12C; read-out: pERK EC50. The class given is cell-based, human. Put shortly: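 pERK decrease read by AlphaLISA SureFire p-ERK1/2 or In-Cell Western after 4 h compound exposure at 37 °C, 5% CO2.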
Another assay has as its system NCI-H358 (K-Ras G12C). As to the kind of experiment: CellTiter-Glo cell viability assay, NCI-H358. Conditions: Homo sapiens, NCI-H358, 120 h, NCI-H358, 5-day treatment; class symbols; read-out: Additional H358 Cell Viability assay data (K-Ras G12C, IC50). Type of assay: cell-based, human. In outline:
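Cells seeded, compound added directly, 5-day exposure. Plates to RT ~30 min, CellTiter-Glo luminescence read. Normalized to DMSO avg (x100); 4-parameter logistic fit.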

Another assay deals with KRAS G13D (Homo sapiens (Human), UniProt P01116+P62937, G13D). As to the kind of experiment: Ras-Raf (BRAF RBD) disruption / FRET / MOA assay, KRAS G13D. Type of assay: biochemical. To be noted: read-out: IC50* KRAS G13D FRET data. In outline:
as §1

Another assay deals with NRAS G12C (Homo sapiens (Human), UniProt P01111+P62937, G12C). Kind of assay: Ras-Raf (BRAF RBD) disruption / FRET / MOA assay, NRAS G12C. Type of assay: biochemical. To be noted: read-out: IC50* NRAS G12C FRET data. In outline:
as §1

The target in the next assay is KRAS WT (Homo sapiens (Human), UniProt P01116+P62937). Kind of assay: Ras-Raf (BRAF RBD) disruption / FRET / MOA assay, KRAS WT. Type of assay: biochemical. To be noted: read-out: IC50* KRAS WT FRET data. Put shortly: as §1
Chain of KRAS WT (P01116-2 other isoform, or with tags, fused parts or gaps): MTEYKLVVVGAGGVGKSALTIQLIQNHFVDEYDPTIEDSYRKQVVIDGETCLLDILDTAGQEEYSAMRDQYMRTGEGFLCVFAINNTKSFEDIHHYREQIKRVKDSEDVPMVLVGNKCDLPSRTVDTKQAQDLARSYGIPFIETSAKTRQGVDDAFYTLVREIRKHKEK
Chain of KRAS WT (P62937 whole entry): as the sequence (P62937 whole entry) above
For another assay, the target named is KRAS G12S (Homo sapiens (Human), UniProt P01116+P62937, G12S). Kind of assay: Ras-Raf (BRAF RBD) disruption / FRET / MOA assay, KRAS G12S. The class given is biochemical. Conditions: Ras-Raf disruption/FRET/MOA assay; class symbols; read-out: KRAS G12S FRET data IC50. Put shortly:
as §1

Another assay concerns the target KRAS G12V (Homo sapiens (Human), UniProt P01116+P62937, G12V). As to the kind of experiment: Ras-Raf (BRAF RBD) disruption / FRET / MOA assay, KRAS G12V. Type of assay: biochemical. Conditions: read-out: IC50* KRAS G12V FRET data. In outline:
as §1

The next assay has as its target KRAS G12D (Homo sapiens (Human), UniProt P01116+P62937, G12D). As to the kind of experiment: Ras-Raf (BRAF RBD) disruption / FRET / MOA assay, KRAS G12D. Type of assay: biochemical. To be noted: Ras-Raf disruption/FRET/MOA assay; class symbols; read-out: KRAS G12D FRET data IC50. In outline: as §1

Chain of KRAS G12D (P01116-2 other isoform, or with tags, fused parts or gaps G12D): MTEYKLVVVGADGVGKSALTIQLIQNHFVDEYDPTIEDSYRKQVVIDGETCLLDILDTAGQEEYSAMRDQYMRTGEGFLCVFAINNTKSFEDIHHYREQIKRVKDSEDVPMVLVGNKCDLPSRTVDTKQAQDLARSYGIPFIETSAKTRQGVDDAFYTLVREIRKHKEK
Chain of KRAS G12D (P62937 whole entry): as the sequence (P62937 whole entry) above
Chain of NRAS G12C (P01111 whole entry G12C): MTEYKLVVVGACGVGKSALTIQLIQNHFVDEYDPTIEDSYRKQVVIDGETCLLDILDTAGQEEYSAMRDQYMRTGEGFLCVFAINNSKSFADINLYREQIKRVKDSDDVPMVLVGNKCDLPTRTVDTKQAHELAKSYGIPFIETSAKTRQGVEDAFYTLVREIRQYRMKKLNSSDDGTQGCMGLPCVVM
Chain of NRAS G12C (P62937 whole entry): as the sequence (P62937 whole entry) above
Chain of KRAS G13D (P01116-2 other isoform, or with tags, fused parts or gaps G13D): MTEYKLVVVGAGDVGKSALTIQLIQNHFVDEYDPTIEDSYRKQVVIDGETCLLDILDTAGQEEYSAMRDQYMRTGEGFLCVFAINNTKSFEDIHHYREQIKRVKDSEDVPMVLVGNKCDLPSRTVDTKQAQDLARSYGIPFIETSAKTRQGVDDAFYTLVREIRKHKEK
Chain of KRAS G13D (P62937 whole entry): as the sequence (P62937 whole entry) above
Chain of KRAS G12S (P01116-2 other isoform, or with tags, fused parts or gaps G12S): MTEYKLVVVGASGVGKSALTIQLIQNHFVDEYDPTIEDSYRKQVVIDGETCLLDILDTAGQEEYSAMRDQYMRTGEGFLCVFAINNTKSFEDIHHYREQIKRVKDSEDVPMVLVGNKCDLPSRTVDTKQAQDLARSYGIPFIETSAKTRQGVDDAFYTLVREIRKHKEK
Chain of KRAS G12S (P62937 whole entry): as the sequence (P62937 whole entry) above
Chain of KRAS G12V (P01116-2 other isoform, or with tags, fused parts or gaps G12V): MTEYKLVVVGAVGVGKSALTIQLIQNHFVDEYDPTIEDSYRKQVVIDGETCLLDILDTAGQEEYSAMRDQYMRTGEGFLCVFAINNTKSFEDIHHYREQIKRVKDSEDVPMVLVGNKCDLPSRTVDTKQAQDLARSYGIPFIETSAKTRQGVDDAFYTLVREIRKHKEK
Chain of KRAS G12V (P62937 whole entry): as the sequence (P62937 whole entry) above

Regarding `C=CC(=O)N1C[C@@H]2C[C@H]1CN2C(=O)N(C)[C@H](C(=O)N[C@H]1Cc2nc(cs2)-c2ccc3c(c2)c(c(-c2cccnc2[C@H](C)OC)n3CC)CC(C)(C)COC(=O)[C@@H]2CCCN(N2)C1=O)C(C)C` (atropisomer, axis not shown) [Example A409], the IC50 at K-Ras G12C was 100 to 1000 nM; at K-Ras G13C it was 100 to 1000 nM; in the assay on NCI-H358 (K-Ras G12C), 10 to 100 nM; on KRAS G13D, 1000 to 10000 nM; on NRAS G12C, 100 to 1000 nM; on KRAS WT, 100 to 1000 nM. The IC50 at KRAS G12S, on KRAS G12V and on KRAS G12D was 100 to 1000 nM each time. In addition, in [1], the concentration giving a half-maximal response (EC50) is under 5000 nM.

For `CCn1c(-c2cccnc2[C@H](C)OC)c2c3cc(ccc31)-c1csc(n1)C[C@H](NC(=O)[C@H](C(C)C)N1CC[C@]3(CCN(C(=O)C#CC(C)(C)N(C)C)C3)C1=O)C(=O)N1CCC[C@H](N1)C(=O)OCC(C)(C)C2` (atropisomer, axis not shown) [Example A411], the concentration for half-maximal inhibition (IC50) at K-Ras G12C is under 10 nM; at K-Ras G13C it was 100 to 1000 nM; in the assay on NCI-H358 (K-Ras G12C), under 10 nM; at KRAS G13D it was 1000 to 10000 nM; on NRAS G12C it was under 10 nM; at KRAS WT, 1000 to 10000 nM. Besides, the half-inhibitory concentration (IC50) on KRAS G12S, at KRAS G12V and at KRAS G12D was 1000 to 10000 nM each time. Besides, the EC50 in [1] is under 5000 nM.

As for `CC#CC(=O)N1CC[C@]2(CCN([C@H](C(=O)N[C@H]3Cc4cccc(c4)-c4ccc5c(c4)c(c(-c4cccnc4[C@H](C)OC)n5CC)CC(C)(C)COC(=O)[C@@H]4CCCN(N4)C3=O)C(C)C)C2=O)C1` (atropisomer, axis not shown) [Example A412], the half-maximal inhibitory concentration (IC50) at K-Ras G12C fell in the range of 100 to 1000 nM; on K-Ras G13C, 100 to 1000 nM; in the assay on NCI-H358 (K-Ras G12C) it was 10 to 100 nM; at KRAS G13D, 1000 to 10000 nM; on NRAS G12C it was 100 to 1000 nM; on KRAS WT it was 1000 to 10000 nM. The concentration for half-maximal inhibition (IC50) on KRAS G12S, on KRAS G12V and on KRAS G12D was 1000 to 10000 nM each time. Moreover, the EC50 in assay [1] was under 5000 nM.

Turning to `CC#CC(=O)N1C[C@H](C)[C@H](C(=O)N(C)[C@H](C(=O)N[C@H]2Cc3cccc(c3)-c3ccc4c(c3)c(c(-c3cccnc3[C@H](C)OC)n4CC)CC(C)(C)COC(=O)[C@@H]3CCCN(N3)C2=O)C(C)C)C1` (atropisomer, axis not shown) [Example A413], the IC50 at K-Ras G12C is 100 to 1000 nM; on K-Ras G13C it was 1000 to 10000 nM; with NCI-H358 (K-Ras G12C), 10 to 100 nM; at KRAS G13D, 1000 to 10000 nM; at NRAS G12C it was 100 to 1000 nM; on KRAS WT it was 1000 to 10000 nM. The figures for the half-inhibitory concentration (IC50) on KRAS G12S, at KRAS G12V and at KRAS G12D were 1000 to 10000 nM, 1000 to 10000 nM and over 10000 nM, respectively. For the same compound, the concentration for a half-maximal effect (EC50) in assay [1] was under 5000 nM.

For the compound `CCn1c(-c2cccnc2[C@H](C)OC)c2c3cc(ccc31)-c1cccc(c1)C[C@H](NC(=O)[C@H](C(C)C)N1CC[C@@]3(CCN(C(=O)C#CC(C)(C)N(C)C)C3)C1=O)C(=O)N1CCC[C@H](N1)C(=O)OCC(C)(C)C2` (atropisomer, axis not shown) [Example A414], the IC50 was under 10 nM at K-Ras G12C; 1000 to 10000 nM at K-Ras G13C; under 10 nM with NCI-H358 (K-Ras G12C); over 10000 nM at KRAS G13D; under 10 nM on NRAS G12C; over 10000 nM on KRAS WT. Moreover, the IC50 on KRAS G12S was 1000 to 10000 nM; on KRAS G12V, 1000 to 10000 nM; on KRAS G12D, over 10000 nM. For the same compound, the EC50 in assay [1] was under 5000 nM.

Turning to `C=CC(=O)N1CCC12CCN(C(=O)N(C)[C@H](C(=O)N[C@H]1Cc3nc(cs3)-c3ccc4c(c3)c(c(-c3cccnc3[C@H](C)OC)n4CC)CC(C)(C)COC(=O)[C@@H]3CCCN(N3)C1=O)C(C)C)CC2` (atropisomer, axis not shown) [Example A415], the 50% inhibitory concentration (IC50) at K-Ras G12C was in the range of 100 to 1000 nM; at K-Ras G13C it was 100 to 1000 nM; with NCI-H358 (K-Ras G12C), 10 to 100 nM; at KRAS G13D it was 100 to 1000 nM; at NRAS G12C, 100 to 1000 nM; on KRAS WT, 100 to 1000 nM. The IC50 at KRAS G12S fell in the range of 100 to 1000 nM; on KRAS G12V, 100 to 1000 nM; at KRAS G12D it was 1000 to 10000 nM. Also, the EC50 in [1] was under 5000 nM.
